Results from ChEMBL document CHEMBL5338788, “Discovery of a New-Generation S-Adenosylmethionine-Noncompetitive Covalent Inhibitor Targeting the Lysine Methyltransferase Enhancer of Zeste Homologue 2” (J Med Chem, 2023).
Activity calls are given as the source filed them. No cut-off for these calls is given here.

Experiments:
[1] = biological target: Histone-lysine N-methyltransferase EZH2 (Homo sapiens, UniProt Q15910, Y641F); assay: Inhibition of N-terminal FLAG-tagged recombinant full-length human EZH2 Y641F mutant in PRC2 complex expressed in baculovirus infected Sf9 cells using H3K27me0 biotin/SAM as substrate preincubated for 10 mins followed by substrate addition measured after 4 hrs by HTRF assay; assay type: cell-based
Histone-lysine N-methyltransferase EZH2, sequence (Q15910 whole entry Y641F): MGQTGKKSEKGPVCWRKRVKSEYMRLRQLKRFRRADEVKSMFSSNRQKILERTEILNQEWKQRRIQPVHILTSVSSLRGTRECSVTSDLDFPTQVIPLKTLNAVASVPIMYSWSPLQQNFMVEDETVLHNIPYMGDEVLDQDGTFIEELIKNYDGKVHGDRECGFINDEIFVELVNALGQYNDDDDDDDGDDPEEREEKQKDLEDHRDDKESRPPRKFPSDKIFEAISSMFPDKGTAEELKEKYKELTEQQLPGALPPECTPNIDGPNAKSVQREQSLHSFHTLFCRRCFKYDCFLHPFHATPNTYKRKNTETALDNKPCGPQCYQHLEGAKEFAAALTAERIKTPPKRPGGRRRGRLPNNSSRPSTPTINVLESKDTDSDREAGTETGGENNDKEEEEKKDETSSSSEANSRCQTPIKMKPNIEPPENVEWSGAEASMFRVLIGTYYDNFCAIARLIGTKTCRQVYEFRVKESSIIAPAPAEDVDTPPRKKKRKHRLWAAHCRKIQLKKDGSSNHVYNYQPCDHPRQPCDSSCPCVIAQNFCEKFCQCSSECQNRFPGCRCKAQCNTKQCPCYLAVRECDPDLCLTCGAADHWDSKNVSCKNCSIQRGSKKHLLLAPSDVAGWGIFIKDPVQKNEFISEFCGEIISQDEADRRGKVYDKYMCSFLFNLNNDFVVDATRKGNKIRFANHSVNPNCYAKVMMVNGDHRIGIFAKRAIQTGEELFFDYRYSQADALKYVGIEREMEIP

[2] = tested on: Pfeiffer; assay: Antiproliferative activity against human Pfeiffer cells expressing EZH2 […] mutant assessed as inhibition of cell proliferation incubated for 6 days by CCK8 assay; assay type: functional, cell-based; settings: 144 h
[3] = tested on: KARPAS-422; assay: Antiproliferative activity against human KARPAS-422 cells expressing EZH2 Y641N mutant assessed as inhibition of cell proliferation incubated for 6 days by CCK8 assay; assay type: functional, cell-based; settings: KARPAS-422, 144 h
[4] = Apparent permeability in human Caco-2 cells at 20 uM measured for 35 to 95 mins by LC-MS/MS analysis; assay type: ADME, cell-based; settings: time 35-95 min
[5] = Metabolic stability in human liver microsomes assessed as half life preincubated for 10 mins followed by NADPH addition measured upto 60 mins by LC-MS/MS analysis; assay type: ADME, Microsome; settings: time < 70 min
[6] = tested on: Pfeiffer; assay: Downregulation of H3K27me3 level in human Pfeiffer cells at 1 uM incubated for 96 hrs followed by compound washout measured after 48 hrs by Western blot analysis; assay type: functional, cell-based; settings: time 144.0 hrs
[7] = tested on: Pfeiffer; assay: Antiproliferative activity against human Pfeiffer cells expressing EZH2 mutant assessed as inhibition of cell proliferation incubated for 6 days by CCK8 assay; assay type: functional, cell-based; settings: time 6.0 day
[8] = tested on: OPM-2; assay: Antiproliferative activity against human OPM-2 cells expressing wild-type EZH2 assessed as inhibition of cell proliferation incubated for 6 days by CCK8 assay; assay type: functional, cell-based; settings: OPM-2, 144 h
[9] = tested on: U2932; assay: Antiproliferative activity against human U2932 cells expressing wild-type EZH2 assessed as inhibition of cell proliferation incubated for 6 days by CCK8 assay; assay type: functional, cell-based; settings: U2932, 144 h
[10] = tested on: WSUDLCL2; assay: Antiproliferative activity against human WSUDLCL2 cells expressing wild-type EZH2 assessed as inhibition of cell proliferation incubated for 6 days by CCK8 assay; assay type: functional, cell-based; settings: WSUDLCL2, 144 h
[11] = tested on: SU-DHL10; assay: Antiproliferative activity against human SU-DHL-10 cells expressing EZH2 mutant assessed as inhibition of cell proliferation incubated for 6 days by CCK8 assay; assay type: functional, cell-based; settings: time 6.0 day
[12] = tested on: DB; assay: Antiproliferative activity against human DB cells expressing wild-type EZH2 assessed as inhibition of cell proliferation incubated for 6 days by CCK8 assay; assay type: functional, cell-based; settings: 144 h
[13] = tested on: RL; assay: Antiproliferative activity against human RL cells expressing EZH2 mutant assessed as inhibition of cell proliferation incubated for 6 days by CCK8 assay; assay type: functional, cell-based
[14] = tested on: Karpas-1106P; assay: Antiproliferative activity against human KARPAS-1106P cells expressing wild-type EZH2 assessed as inhibition of cell proliferation incubated for 6 days by CCK8 assay; assay type: functional, cell-based
[15] = tested on: SU-DHL-2; assay: Antiproliferative activity against human SUDHL2 cells expressing EZH2 mutant assessed as inhibition of cell proliferation incubated for 6 days by CCK8 assay; assay type: functional, cell-based; settings: SU-DHL-2, 144 h
[16] = tested on: KARPAS-422; assay: Antiproliferative activity against human KARPAS-422 cells expressing EZH2 mutant assessed as inhibition of cell proliferation incubated for 6 days by CCK8 assay; assay type: functional, cell-based; settings: time 6.0 day
[17] = tested on: HT; assay: Antiproliferative activity against human HT cells expressing wild-type EZH2 assessed as inhibition of cell proliferation incubated for 6 days by CCK8 assay; assay type: functional, cell-based; settings: 144 h
[18] = Antiproliferative activity against human WILL-1 cells expressing wild-type EZH2 assessed as inhibition of cell proliferation incubated for 6 days by CCK8 assay; assay type: functional, cell-based; settings: WILL-1, 144 h

SMILES	IC50 [1] [nM]	IC50 [2] [nM]	IC50 [3] [nM]	also measured
C=C(C)C(=O)Nc1cc(C(=O)NCc2c(C)cc(C)[nH]c2=O)c(C)c(N(CC)C2CCOCC2)c1	38	–	–	–
CCC(=O)NCc1cc(C(=O)NCc2c(C)cc(C)[nH]c2=O)c(C)c(N(CC)C2CCOCC2)c1	137	> 3000	> 3000	–
CCN(c1cc(NC(=O)/C=C/CN(C)C)cc(C(=O)NCc2c(C)cc(C)[nH]c2=O)c1C)C1CCOCC1	36	–	–	–
C=CC(=O)N(C)c1cc(C(=O)NCc2c(C)cc(C)[nH]c2=O)c(C)c(N(CC)C2CCOCC2)c1	35	195	587	Papp at 20 µM [4]: 0.054 ×10⁻⁶ cm/s; half-life [5]: 12.7 min
C=CC(=O)Nc1cc(C(=O)NCc2c(C)cc(C)[nH]c2=O)c(C)c(N(CC)C2CCOCC2)c1	10	974	> 3000	Papp at 20 µM [4]: 0.045 ×10⁻⁶ cm/s; half-life [5]: 9.4 min
CC[C@H](C)n1cc(C)c2c(C(=O)NCc3c(C)cc(C)[nH]c3=O)cc(-c3ccc(N4CCNCC4)nc3)cc21	–	–	–	Activity [6]: inactive
C=CC(=O)NCc1cc(C(=O)NCc2c(OC)cc(C)[nH]c2=O)c(C)c(N(CC)C2CCOCC2)c1	9	314	1440	half-life [5]: 35.3 min
CCN(c1cc(NC(=O)/C=C/CN2CCOCC2)cc(C(=O)NCc2c(C)cc(C)[nH]c2=O)c1C)C1CCOCC1	21	–	–	–
C=CC(=O)NCc1cc(C(=O)NCc2c(CCC)cc(C)[nH]c2=O)c(C)c(N(CC)C2CCOCC2)c1	4	1350	> 3000	–
C/C=C/C(=O)Nc1cc(C(=O)NCc2c(C)cc(C)[nH]c2=O)c(C)c(N(CC)C2CCOCC2)c1	21	–	–	–
CC#CC(=O)Nc1cc(C(=O)NCc2c(C)cc(C)[nH]c2=O)c(C)c(N(CC)C2CCOCC2)c1	11	–	–	–
CCC(=O)NCc1cc(C(=O)NCc2c(SC)cc(C)[nH]c2=O)c(C)c(N(CC)C2CCOCC2)c1	134	147	708	inhibition [7]: Active; IC50 [8]: > 3000 nM; IC50 [9]: > 3000 nM; IC50 [10]: > 3000 nM; inhibition [11]: Active; IC50 [12]: > 3000 nM; IC50 ([13]; 144 h): > 3000 nM; IC50 ([14]; 144 h): > 3000 nM; IC50 [15]: > 3000 nM; inhibition [16]: Active; Activity [6]: inactive; IC50 [17]: > 3000 nM; IC50 [18]: > 3000 nM
CCC(=O)Nc1cc(C(=O)NCc2c(C)cc(C)[nH]c2=O)c(C)c(N(CC)C2CCOCC2)c1	38	1950	> 3000	–
CCN(c1cc(-c2ccc(CN3CCOCC3)cc2)cc(C(=O)NCc2c(C)cc(C)[nH]c2=O)c1C)C1CCOCC1 [TAZEMETOSTAT]	–	34	294	inhibition [7]: Active; IC50 [8]: > 3000 nM; IC50 [9]: > 3000 nM; IC50 [10]: > 3000 nM; inhibition [11]: Active; IC50 [12]: > 3000 nM; inhibition ([13]; time 6.0 day): Active; inhibition ([14]; time 6.0 day): Active; Papp at 20 µM [4]: 1.06 ×10⁻⁶ cm/s; IC50 [15]: > 3000 nM; half-life [5]: 20.2 min; inhibition [16]: Active; Activity [6]: inactive; IC50 [17]: > 3000 nM; IC50 [18]: > 3000 nM
C=CC(=O)NCc1cc(C(=O)NCc2c(C)cc(C)[nH]c2=O)c(C)c(N(CC)C2CCOCC2)c1	39	194	542	half-life [5]: 24 min
CCC(=O)N(C)c1cc(C(=O)NCc2c(C)cc(C)[nH]c2=O)c(C)c(N(CC)C2CCOCC2)c1	50	2530	> 3000	–
C=CS(=O)(=O)Nc1cc(C(=O)NCc2c(C)cc(C)[nH]c2=O)c(C)c(N(CC)C2CCOCC2)c1	173	–	–	–
